Experimental data taken from PubChem BioAssay AID720513 (Broad Institute, 2013).
Inconclusive results are not listed.

tested on: U2OS PGC1a acetylation AlphaLISA, overnight; experiment: activators raising PGC1a acetylation in cells, dose response, cell-based, cherry-picked samples, set 6 (AID 720513);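 also: cells made to overexpress flag tagged PGC1a plus GCN5 acetyltransferase by viral infection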

Row | Compound | AC40 [µM]
1 | COc1ccc(NC(=O)Cn2ncc(Cl)c(Cl)c2=O)cc1S(=O)(=O)N1CCOCC1 | 1.6
2 | CCOC(=O)C1=CC[C@@H](c2ccc(OC)cc2)N(S(=O)(=O)c2ccc(C)cc2)[C@H]1CC | 3.36
3 | CC(=O)c1ccc(NC(=O)N2CCc3ccccc3C2)cc1 | 0.412
4 | O=C(CC1SC(=Nc2ccc3c(c2)OCCO3)NC1=O)Nc1ccc(F)cc1F (configuration not stated) | 0.191
5 | CO[C@@H]1CN(C)C(=O)c2cc(NC(=O)c3ccc(Oc4ccccc4)cc3)ccc2OC[C@@H](C)NC[C@@H]1C | 15.2
6 | N#Cc1ccccc1COC(=O)c1ccc2c(c1)OCCO2 | 5.43
7 | O=C(Nc1ccc(OCC(=O)N2CCC(Cc3ccccc3)CC2)cc1)c1ccco1 | 3.17
8 | O=C(CCCn1c(=O)[nH]c2cc(Cl)ccc2c1=O)NCCC1=CCCCC1 | 0.371
9 | CC(=O)Nc1cc(C(=O)OCc2cccc([N+](=O)[O-])c2)ccc1C | 10.4
10 | O=C(Nc1ccc2c(c1)OCO2)C1CCN(c2ccc(S(=O)(=O)N3CCOCC3)cc2)CC1 | 9.15
11 | O=C(C1CCC1)N1CCN(S(=O)(=O)c2ccccc2)CC1 | 2.24
12 | COc1ccc(Nc2nnc(-c3ccc(C(N)=O)cc3)c3ccccc23)cc1 | 0.524
13 | CCOC(=O)C1=CC[C@@H](c2ccc([N+](=O)[O-])cc2)N(S(=O)(=O)c2ccc(C)cc2)[C@H]1c1ccccc1 | 5.13
14 | Cc1nc(N2CCN(S(=O)(=O)c3ccc(F)cc3)CC2)c2c(-c3cccs3)csc2n1 | 3.27
15 | COc1ccc(OC)c(C(=O)/C=C/c2ccccc2C(F)(F)F)c1 | 8.62
16 | CC(C)[C@H](C)NC(=O)N(C)C[C@H]1OCc2ccccc2-c2c(n(C)c3ccccc23)C(=O)N([C@H](C)CO)C[C@H]1C | 5.85
17 | CN1c2ccccc2C2(C)CCCC3=Cc4cccc([N+](=O)[O-])c4OC312 (configuration not stated) | 0.48
18 | O=C(NC1CCCCC1)c1cccnc1C(=O)O | 3.2
19 | Cc1cccc(C(=O)Nc2ccc(C(=O)/C=C/c3cccnc3)cc2)c1 | 2.34
20 | Cc1ccc(OCC(=O)NCCCNC(=O)c2cccnc2)cc1C | 2.1
21 | COc1ccc(Nc2nnc(-c3ccc(C(=O)NCCO)cc3)c3ccccc23)cc1 | 3.07
22 | Cc1cccc(C)c1-n1nnnc1C(c1ccccc1OC(F)(F)F)N1CCC(n2c(=O)[nH]c3ccccc32)CC1 (configuration not stated) | 3.94
23 | CCN(CC)S(=O)(=O)c1c(Br)cc(C)cc1Br | 1.29
24 | COCCN(C)Cc1nc(C(c2ccccc2)c2ccccc2)no1 | 9.12
25 | O=C(CCc1nc2ccccc2c(=O)[nH]1)Nc1ccc(N2CCCCC2)cc1 | 4.4
26 | COc1ccc(C(c2nnnn2C2CCCC2)N2CCC(C)CC2)c(OC)c1 (configuration not stated) | 1.86

Row | Compound | AC40 [µM]
27 | Cc1c(C(=O)N2CCN(c3ccccn3)CC2)sc2ncnc(N3CCN(c4ccccc4)CC3)c12 | 10.9
28 | Cc1cc(C(F)(F)F)n(-c2nc(C(=O)NNS(=O)(=O)c3ccccc3[N+](=O)[O-])cs2)n1 | 3.43
29 | CS(=O)(=O)N(CC(=O)N1CCN(c2ccccc2)CC1)c1cccc(Br)c1 | 17.8
30 | O=C(c1ccccc1)C(O)(Cc1ccccc1)c1ccccc1 (configuration not stated) | 0.901
31 | CCO[C@H]1OC(C(=O)Nc2ccccc2)=C[C@@H](c2csc3ccccc23)[C@@H]1CCCO | 15.7
32 | CC(=O)c1ccc(N2CCN(c3ccc(S(=O)(=O)NCCCN(C)C)cc3[N+](=O)[O-])CC2)cc1 | 1.22
33 | O=C(CCn1nnc2ccccc21)Nc1nnc(Cc2ccccc2)s1 | 4.36
34 | COc1cccc(NC(=O)N(C)C[C@H]2OCc3ccccc3-c3c(n(C)c4ccccc34)C(=O)N([C@@H](C)CO)C[C@@H]2C)c1 | 18.3
35 | COc1cccc(C(=O)/C=C/c2ccc(OCC#N)c(OC)c2)c1 | 6.74
36 | CCOC(=O)c1ccc(NC(=O)N2CCc3ccccc3C2)cc1 | 0.478
37 | O=C(Cc1ccccc1)Nc1nc(-c2ccc(F)c(F)c2)cs1 | 1.44
38 | CN1Cc2c(N3CCOCC3)nc3sc(C(=O)c4ccc(Br)cc4)c(N)c3c2CC1(C)C | 0.996
39 | COC(=O)C[C@@H]1C[C@H]2c3cc(NC(=O)Nc4ccc(C(F)(F)F)cc4)ccc3O[C@H]2[C@H](CO)O1 | 8.45
40 | Cc1sc(NC(=O)c2cccs2)nc1-c1ccccc1 | 0.581
41 | COC(=O)c1ccc2[nH]c3cccc(/C(=C/c4ccccc4)c4ccccc4)c3c2c1 | 3.62
42 | c1ccc(N2CCN(c3ccccc3)C2c2ccncc2)cc1 | 0.244
43 | CCO[C@H]1OC(C(=O)N2CCCCCCC2)=C[C@@H](C2CCCCC2)[C@@H]1CCCO | 1.96
44 | O=C(c1ccc(NC(=O)C2(c3ccccc3)CCOCC2)cc1)N1CCOCC1 | 16.6
45 | Cc1cc(Cn2nc(C(=O)NCc3cccc(C(F)(F)F)c3)cc2-c2ccccc2)on1 | 5.81
46 | COc1cc(C)c(CN2CCN(S(=O)(=O)c3ccc(Cl)s3)CC2)cc1OC | 0.525
47 | COc1ccc(S(=O)(=O)NNC(=O)c2csc(-n3nc(C)cc3C(F)(F)F)n2)cc1 | 7.43
48 | OCCNc1nc(N2CCCCC2)nc2ccccc12 | 18.1
49 | Cc1ccc(Cl)cc1NC(=O)Cn1nc(-c2cccs2)ccc1=O | 4.08
50 | CC1(C)CCCN(C(=O)N2c3ccccc3Sc3ccccc32)C1 | 1.33
51 | c1ccc(-c2c(-c3ccccc3)n(Cc3ccco3)c3ncnc(NCCCn4ccnc4)c23)cc1 | 1.86
52 | N#Cc1ccc(Oc2cccnc2)cc1C#N | 6.09
